Laboratory results reported in patent US12234233B2, “Crystal form of phosphodiesterase inhibitor, preparation method therefor and use thereof” (TRANSTHERA SCIENCES (NANJING), INC., priority 2019, dated 2025).
Read-outs that look alike come from different tables or passages of the source.

How the values were obtained:
[1] = Pharmacokinetic evaluation in rats; type: in vivo, male SD rats
Method: Test substances: the compound of formula (I) was prepared by example 1 of the present invention, and the crystal form I was prepared by example 2 of the present invention.
Administration to Animals and Sample Collection:
(§1) the compound of formula (I) for the experiment was dissolved with 2% DMSO+10% PEG400+88% (28% HP-3-CD) physiological saline to prepare a solution; the solution of the test substance was administered to SD rats by gavage at a dose of 5.0 mg/kg; and the blood sampling time points were 15 min, 30 min, 1 h, 2 h, 4 h, 6 h, 8 h and 24 h after administration.
as §1, with “The compound” for “the compound”, “by intravenous bolus” for “by gavage”, “of 1” for “of 5.0”, “were 5 min,” for “were”
The crystal form I for the experiment was dissolved with 5% DMSO+10% PEG400+85% (20% captisol) physiological saline solution to prepare a solution; the solution of the test substance was administered to SD rats by gavage at a dose of 60.0 mg/kg; and the blood sampling time points were 15 min, 30 min, 1 h, 2 h, 4 h, 8 h, 24 h, 30 h and 48 h after administration.
The crystal form I for the experiment was dissolved with 2% DMSO+10% PEG400+88% (28% HP-β-CD) physiological saline to prepare a solution; the solution of the test substance was administered to SD rats by intravenous bolus at a dose of 5 mg/kg; and the blood sampling time points were 5 min, 15 min, 30 min, 1 h, 4 h, 8 h, 12 h and 24 h after administration.
Compound of formula (I): the ordinary SD rats were used and fixed; the tails of the rats were heated in a water bath 10 minutes before each time point; and about 100 μL of blood was collected via a tail vein, and then placed in an anticoagulation tube containing EDTA-K2. The blood sample was centrifuged at 8000 rpm at 4° C. for 6 min to obtain a plasma sample, which was prepared within 30 minutes after blood collection. The plasma was stored in a refrigerator at −80° C. before the test.
Crystal form I: the rats were subjected to jugular vein cannulation (JVC); each time, about 0.35 ml of blood was collected from the rats via a jugular vein cannula into a centrifuge tube containing 5 μl of 15% EDTA-K2; the mixture was gently mixed to obtain a homogeneous mixture, and then the centrifuge tube was placed in an ice bath immediately. Within 1 hour after collecting whole blood, the mixture was centrifuged at 4° C. and 2400×g for 5 minutes, and the supernatant was immediately collected to obtain a plasma sample. The plasma was stored in a refrigerator at −80° C. before the test.
the plasma sample to be tested was taken out from the −80° C. refrigerator, subjected to natural melting at room temperature, and then vortexed for 5 min; […] of the plasma sample was precisely pipetted into a 1.5 mL centrifuge tube; […] of the internal standard working solution (tolbutamide in methanol) at a concentration of 100 ng/mL was added, and the mixture was mixed homogeneously; the homogeneous mixture was vortexed for 5 min, and then centrifuged at 12000 rpm for 5 min; 50 μL of the supernatant was precisely pipetted into a 96-well plate pre-filled with 150 μL of water/well; and the plate was vortexed for 5 min for homogenization, and subjected to LC-MS/MS assay, with a sample loading volume of 5 μL. […]

[2] = Solubility in test solutions at different pHs and water; type: physicochemical; conditions: 37° C.
Method: Test substances: the compound of formula (I) was prepared by example 1 of the present invention, the crystal form I was prepared by example 2 of the present invention, the crystal form II was prepared by example 16 of the present invention, the crystal form III was prepared by example 20 of the present invention, the crystal form IV was prepared by example 24 of the present invention, the crystal form V was prepared by example 25 of the present invention, the crystal form VI was prepared by example 27 of the present invention, and the crystal form VII was prepared by example 31 of the present invention.
Preparation of Buffered Salt Solutions at Different pHs:
hydrochloric acid solution at pH 1.0:9 ml of hydrochloric acid was pipetted, and water was added for dilution to 1000 ml; the mixture was mixed homogeneously to obtain a hydrochloric acid solution at pH 1.03. Phosphate buffered solution at pH 4.5:1.56 g of sodium dihydrogen phosphate dihydrate was weighed, and 200 ml of water was added to obtain a phosphate buffered solution at pH 4.50. Phosphate buffered solution at pH 6.8:1.56 g of sodium dihydrogen phosphate dihydrate was weighed, and 200 ml of water was added; and the mixture was adjusted to pH 6.80 with 1 mol/L sodium hydroxide solution.
preparation of buffered solutions at different pHs (samples for determining solubility):
50 mg of each test substance was weighed, and 5 ml of the hydrochloric acid solution (pH 1.0) was added; and the mixture was mixed homogeneously with shaking. About 2.5 mg of each test substance was weighed, and 5 ml of the phosphate buffered solution (pH 4.5), 5 ml of the phosphate buffered solution (pH 6.8), and 5 ml of ultrapure water were added, respectively; the mixture was mixed homogeneously with shaking, and then placed in a 37° C. water bath shaker for shaking; the samples were collected at 24 hours and subjected to centrifugation; and the supernatant was taken and directly injected (if the solubility was high, the supernatant was diluted with a 0.1 mol/L hydrochloric acid solution to an appropriate multiple and then injected).
The solubility of the samples was quantitatively calculated according to the single-point external standard method.

[3] = male SD rats, gavage 60.0 mg/kg
[4] = male SD rats, intravenous bolus 5 mg/kg

Tmax ([1]; Sprague-Dawley, rat, plasma, po, male SD rats, gavage 60.0 mg/kg): 1.67 h
AUC(0-t) ([1]; Sprague-Dawley, rat, plasma, po, male SD rats, gavage 60.0 mg/kg, read-out: AUClast PO): 40100 ng·h/mL
AUC(0-t) ([1]; Sprague-Dawley, rat, plasma, male SD rats, intravenous bolus 5 mg/kg, read-out: AUClast iv): 2450 ng·h/mL
AUClast PO/Dose [1, 3]: 667.8 h*ng/mL per mg/kg
tz1/2 PO [1, 3]: 3.91 h
AUClast iv/Dose [1, 4]: 489.4 h*ng/mL per mg/kg
Cl_obs iv [1, 4]: 35.5 mL/min/kg
Vz_obs iv [1, 4]: 0.898 L/kg
tz1/2 iv [1, 4]: 0.453 h
24-hour solubility ([2]; Water): 110 µg/mL
24-hour solubility ([2]; pH 1.0 hydrochloric acid solution): 8600 µg/mL
24-hour solubility ([2]; pH 4.5 phosphate buffered solution): 130 µg/mL
24-hour solubility ([2]; pH 6.8 phosphate buffered solution): 110 µg/mL
SMILES: CCc1cc2c(N3CCC(C)(OC)CC3)c(C#N)c(=O)[nH]c2cn1 [Crystal form I, 6-ethyl-4-(4-methoxy-4-methylpiperidin-1-yl)-2-oxo-1,2-dihydro-1,7-diazanaphthal ene-3-carbonitrile]
pharmacokinetic characteristics ([1]; conclusion from Table 2, rats): excellent pharmacokinetic characteristics
